Read-outs that look alike come from different tables or passages of the source.
Key:
human WSU-DLCL2 = experiment: Antitumor activity against human WSU-DLCL2 xenografts in SCID female mice; type: in vivo; conditions: for Median (nMad) tumor volume changes from baseline: n = 7
Description: To evaluate the antitumor activity of Bendamustine in combination with the dual pan-PI3K/mTOR inhibitor Compound A, experiments were conducted using female SCID mice bearing human WSU-DLCL2 xenografts. In this study, Bendamustine at 3.5 and 7 mg/kg was tested in combination with Compound A at 20 mg/kg.
CB17/1CR-Prkdc severe combined immunodeficiency (SCID)/Crl mice, at 8-10 weeks old, were bred at Charles River France (Domaine des Oncins, 69210 L'Arbreste, France) from strains obtained from Charles River, USA. Mice were over 18 g at start of treatment after an acclimatization time of at least 5 days. […] They were housed on a 12 hours light/dark cycle. Environmental conditions including animal maintenance, room temperature (22° C.±2° C.), relative humidity (55%±15%) and lighting times were recorded by the supervisor of laboratory animal sciences and welfare (LAW) and the records are archived.
The human WSU-DLCL2 tumor model was established by implanting (SC) small tumor fragments and was maintained in SCID female mice using serial passages.
Bendamustine formulation was prepared by incorporating the compound into NaCl 0.9% at pH 3. The preparation was prepared daily prior administration. The volume of IP administration per mouse was 10 mL/kg.
(§1) Compound A formulations were prepared in 1N HCl and water for injection, final pH was 3, followed by five cycles of vortexing and sonicating. The stock solution was chemically stable 7 days in the dark at 4° C. The volume of PO administration per mouse was 10 mL/kg.
For subcutaneous implantation of tumor cells, skin in the flank of the mice was disinfected using alcohol or Betadine® solution (Alcyon) and a suspension of tumor cells was inoculated SC unilaterally under a volume of 0.2 mL using a 23 G needle.
The animals required to begin a given experiment were pooled and implanted monolaterally on day 0. Treatments were administered on measurable tumors. The solid tumors were allowed to grow to the desired volume range (animals with tumors not in the desired range were excluded). The mice were then pooled and unselectively distributed to the various treatment and control groups. […] The dosages are expressed in mg/kg, based on the body weight at start of therapy. Mice were checked daily, and adverse clinical reactions noted. Each group of mice was weighed as a whole daily until the weight nadir was reached. Then, groups were weighed once to thrice weekly until the end of the experiment. Tumors were measured with a calliper 2 to 3 times weekly until final sacrifice for sampling time, tumor reached 2000 mm^3 or until the animal died (whichever comes first). Solid tumor volumes were estimated from two-dimensional tumor measurements and calculated according to the following equation:
Tumor weight (mg)=Length (mm)×Width^2(mm^2)/2
The primary efficacy end points are ΔT/ΔC, percent median regression, partial and complete regressions (PR and CR).
Changes in tumor volume for each treated (T) and control (C) group were calculated for each tumor by subtracting the tumor volume on the day of first treatment (staging day) from the tumor volume on the specified observation day. The median ΔT is calculated for the treated group, and the median ΔC is calculated for the control group. Then the ratio ΔT/ΔC is calculated and expressed as a percentage. The dose is considered as therapeutically active when ΔT/ΔC is lower than 40% and very active when ΔT/ΔC is lower than 10%.
Partial regression: Regressions are defined as partial if the tumor volume decreases to 50% or the tumor volume at the start of treatment.
Complete regression: The CR is achieved when tumor volume=0 mm^3 (CR is considered when tumor volume cannot be recorded).
The term “therapeutic synergy” is used when the combination of two products at given doses is more efficacious than the best of the two products alone considering the same doses.

[1] = Chemical stability of Compound A stock solution; type: physicochemical; conditions: formulation in 1N HCl and water for injection, final pH 3; in the dark at 4° C.
Description: as §1

[2] = type: in vivo
Description: The animals required to begin a given experiment were pooled and implanted monolaterally on day 0. Treatments were administered on measurable tumors. The solid tumors were allowed to grow to the desired volume range (animals with tumors not in the desired range were excluded). The mice were then pooled and unselectively distributed to the various treatment and control groups. Treatment started 20 days post WSU-DLCL2 tumor fragment implantation as indicated in the results section and in each table. The dosages are expressed in mg/kg, based on the body weight at start of therapy. Mice were checked daily, and adverse clinical reactions noted. Each group of mice was weighed as a whole daily until the weight nadir was reached. Then, groups were weighed once to thrice weekly until the end of the experiment. Tumors were measured with a calliper 2 to 3 times weekly until final sacrifice for sampling time, tumor reached 2000 mm^3 or until the animal died (whichever comes first). Solid tumor volumes were estimated from two-dimensional tumor measurements and calculated according to the following equation: […]
The day of death was recorded. Surviving animals were sacrificed and macroscopic examination of the thoracic and abdominal cavities was performed.
A dosage producing a 15% body weight loss (BWL) during three consecutive days (mean of group), 20% BWL during 1 day or 10% or more drug deaths was considered an excessively toxic dosage. Animal body weights included the tumor weight.

[3] = Maximum tolerated dose of Compound A administered as single agent; conditions: twice daily
[4] = Compound A 20 mg/kg per injection (total 240) PO, days 20-31
[5] = Bendamustine 3.5 mg/kg per injection (total 21) IP, days 20-25
[6] = Bendamustine 7 mg/kg per injection (total 42) IP, days 20-25

Which results are given for `CCn1c(=O)c(-c2ccn[nH]2)cc2c(C)nc(N)nc21` [Compound A, 2-amino-8-ethyl-4-methyl-6-(1H-pyrazol-5-yl)pyrido[2,3-d]pyrimidin-7(8H)-one]?
Regressions Complete (human WSU-DLCL2; [4]): 0/7; Regressions Partial (human WSU-DLCL2; [4]): 0/7; Median ΔT/ΔC in % day 31 (human WSU-DLCL2; Compound A 20 mg/kg per injection (total 240) PO, days 20-31, day 31, 20 mg/kg): 54%; Median (nMad) tumor volume changes from baseline (human WSU-DLCL2; Compound A 20 mg/kg, Day 24): 145 (139.4); Median (nMad) tumor volume changes from baseline (human WSU-DLCL2; Compound A 20 mg/kg, Day 26): 218 (26.7); Median (nMad) tumor volume changes from baseline (human WSU-DLCL2; Compound A 20 mg/kg, Day 28): 242 (172); Median (nMad) tumor volume changes from baseline (human WSU-DLCL2; Compound A 20 mg/kg, Day 31): 314 (317.3); Chemical stability of stock solution [1]: 7 days; Drug death (Day of death) [2, 4]: 0/7; Average body weight change in % per mouse at nadir ([2]; mouse, in vivo, po, 20 mg/kg): −2.0%; day of nadir (body weight) ([2]; mouse, in vivo, po, 20 mg/kg): 21 days; MTD of Compound A administered as single agent [3]: 50 mg BID

Which “Regressions Complete” value (human WSU-DLCL2; [5]) does the source give for `Cn1c(CCCC(=O)O)nc2cc(N(CCCl)CCCl)ccc21` [Bendamustine, 4-[5-[Bis(2-chloroethyl)amino]-1-methylbenzimidazol-2-yl]butanoic acid] here?
Its value is 0/7.

What about the “Regressions Partial” value (human WSU-DLCL2; [5]) of the same compound?
The value was 0/7.

What about the “Median (nMad) tumor volume changes from baseline” value (human WSU-DLCL2; Bendamustine 3.5 mg/kg, Day 24) of the same compound?
The value was 170 (62.3).

And the “Median (nMad) tumor volume changes from baseline” value (human WSU-DLCL2; Bendamustine 3.5 mg/kg, Day 26)?
Its value is 222 (89).

What about the “Median (nMad) tumor volume changes from baseline” value (human WSU-DLCL2; Bendamustine 3.5 mg/kg, Day 28) of the same compound?
Its value is 268 (252).

And the “Median (nMad) tumor volume changes from baseline” value (human WSU-DLCL2; Bendamustine 3.5 mg/kg, Day 31)?
Its value is 483 (247.6).

What about the “Regressions Complete” value (human WSU-DLCL2; [6]) of the same compound?
Its value is 0/7.

What about the “Regressions Partial” value (human WSU-DLCL2; [6]) of the same compound?
Its value is 0/7.

What about the “Median (nMad) tumor volume changes from baseline” value (human WSU-DLCL2; Bendamustine 7 mg/kg, Day 24) of the same compound?
Its value is 267 (198.7).

What about the “Median (nMad) tumor volume changes from baseline” value (human WSU-DLCL2; Bendamustine 7 mg/kg, Day 26) of the same compound?
Its value is 317 (258).

And the “Median (nMad) tumor volume changes from baseline” value (human WSU-DLCL2; Bendamustine 7 mg/kg, Day 28)?
Its value is 306 (268.4).

And the “Median (nMad) tumor volume changes from baseline” value (human WSU-DLCL2; Bendamustine 7 mg/kg, Day 31)?
The value was 477 (249.1).

What about the “Average body weight change in % per mouse at nadir” value [2, 5] of the same compound?
Its value is −3.8%.

And the “Drug death (Day of death)” value [2, 5]?
The value was 0/7.

What about the “day of nadir (body weight)” value [2, 5] of the same compound?
Its value is 28 days.

What about the “Average body weight change in % per mouse at nadir” value [2, 6] of the same compound?
Its value is −7.2%.

And the “Drug death (Day of death)” value [2, 6]?
Its value is 0/7.

And the “day of nadir (body weight)” value [2, 6]?
Its value is 27 days.

What about the Tolerability ([2]; as single agents or in combination: Bendamustine 3.5 and 7 mg/kg, Compound A 20 mg/kg) of the same compound?
Its Tolerability is “tolerated”.

Reference: US20140302012A1, “Combination Therapies for Treating Hematologic Malignancies Using Pyridopyrimidinone Inhibitors of PI3K/mTOR with Bendamustine and/or Rituximab” (priority 2011, published 2014)
